In patent US10343992B2, “1-cyano-pyrrolidine compounds as USP30 inhibitors” (MISSION THERAPEUTICS LIMITED, priority 2015, dated 2019):

target: USP30 (Homo sapiens (Human), UniProt Q70CQ3); experiment: USP30 biochemical FP or FI IC50 assay; settings: read-out: IC50 range
In short: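 Human USP30 preincubated 30 min at room temperature with compound (8-point series, 100 µM top final) in Tris pH 7.5, Tween 20, BSA, 5 mM β-mercaptoethanol, in duplicate. FP format: 50 nM TAMRA-peptide–isopeptide-ubiquitin substrate, ex 540/em 590. FI format: 100 nM ubiquitin-rhodamine 110, ex 487/em 535. Both read at 0 and after 2 h at room temperature.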

USP30, sequence (Q70CQ3 57-517): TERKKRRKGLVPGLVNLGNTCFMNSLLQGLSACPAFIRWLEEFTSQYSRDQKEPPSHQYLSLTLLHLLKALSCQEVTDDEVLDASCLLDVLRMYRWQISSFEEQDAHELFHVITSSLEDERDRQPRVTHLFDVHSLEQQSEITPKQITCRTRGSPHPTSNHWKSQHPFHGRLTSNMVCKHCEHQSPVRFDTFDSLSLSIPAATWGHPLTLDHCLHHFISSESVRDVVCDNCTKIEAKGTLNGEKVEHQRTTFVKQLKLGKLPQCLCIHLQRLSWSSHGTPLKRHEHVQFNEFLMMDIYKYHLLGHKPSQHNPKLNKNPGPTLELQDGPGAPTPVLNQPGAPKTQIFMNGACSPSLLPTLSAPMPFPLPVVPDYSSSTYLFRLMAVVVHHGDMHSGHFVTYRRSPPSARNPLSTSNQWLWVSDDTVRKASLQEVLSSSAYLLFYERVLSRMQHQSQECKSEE

Row | IC50 [nM] | SMILES
1 | 100 to 1000 | N#CN1CC[C@@H](N2CCN(c3cccc(N4CCOCC4)c3)C2=O)C1 [Example 210, (R)-3-(3-(3-morpholinophenyl)-2-oxoimidazolidin-1-yl)pyrrolidine-1-carbonitrile]
2 | 100 to 1000 | N#CN1CC[C@@H](NC(=O)c2ccc3c(c2)OCCN3c2ncccn2)C1 [Example 211, (R)-N-(1-cyanopyrrolidin-3-yl)-4-(pyrimidin-2-yl)-3,4-dihydro-2H-benzo[b][1, 4]oxazine-7-carboxamide]
3 | < 100 | N#CN1CC[C@@H](NC(=O)c2ccc3c(c2)OCCN3c2nccc(C3CC3)n2)C1 [Example 212, (R)-N-(1-cyanopyrrolidin-3-yl)-4-(4-cyclopropylpyrimidin-2-yl)-3,4-dihydro-2H-benzo[b][1, 4]oxazine-7-carboxamide]
4 | < 100 | N#CN1CC[C@@H](NC(=O)c2ccc(Nc3nccc(C4CC4)n3)c(F)c2)C1 [Example 213, (R)-N-(1-cyanopyrrolidin-3-yl)-4-((4-cyclopropylpyrimidin-2-yl)amino)-3-fluorobenzamide]
5 | < 100 | N#CN1CC[C@@H](NC(=O)c2ccc(Nc3nccc(C4CC4)n3)c(F)c2F)C1 [Example 214, (R)-N-(1-cyanopyrrolidin-3-yl)-4-((4-cyclopropylpyrimidin-2-yl)amino)-2,3-difluorobenzamide]
6 | 100 to 1000 | CC(C)C(=O)N(C)c1ccnc(C(=O)N[C@@H]2CCN(C#N)C2)c1 [Example 215, (R)-N-(1-cyanopyrrolidin-3-yl)-4-(N-methylisobutyramido)picolinamide]
7 | 100 to 1000 | N#CN1CC[C@@H](NC(=O)c2ccc(-c3ccccn3)cn2)C1 [Example 216, (R)-N-(1-cyanopyrrolidin-3-yl)-[2, 3′-bipyridine]-6′-carboxamide]
8 | 100 to 1000 | N#CN1CC[C@@H](NC(=O)c2cc(-c3ccccn3)ccn2)C1 [Example 217, (R)-N-(1-cyanopyrrolidin-3-yl)-[2, 4′-bipyridine]-2′-carboxamide]
9 | 100 to 1000 | N#CN1CC[C@@H](NC(=O)c2cc(-c3ccc(C(F)(F)F)cc3)no2)C1 [Example 219, (R)-N-(1-cyanopyrrolidin-3-yl)-3-(4-(trifluoromethyl)phenyl)isoxazole-5-carboxamide]
10 | 100 to 1000 | COc1ccc(-c2cc(C(=O)N[C@@H]3CCN(C#N)C3)on2)cc1OC [Example 220, (R)-N-(1-cyanopyrrolidin-3-yl)-3-(3,4-dimethoxyphenyl)isoxazole-5-carboxamide]
11 | < 100 | COc1cccc(-c2cc(C(=O)N[C@@H]3CCN(C#N)C3)on2)c1 [Example 221, (R)-N-(1-cyanopyrrolidin-3-yl)-3-(3-methoxyphenyl)isoxazole-5-carboxamide]
12 | 100 to 1000 | N#CN1CC[C@@H](NC(=O)C2CCN(c3ccccc3)C2)C1 (stereo partly drawn) [Example 222, N-((R)-1-cyanopyrrolidin-3-yl)-1-phenylpyrrolidine-3-carboxamide]
13 | < 100 | Cc1cn(-c2ccc(C(=O)N[C@@H]3CCN(C#N)C3)cc2F)cn1 [Example 223, (R)-N-(1-cyanopyrrolidin-3-yl)-3-fluoro-4-(4-methyl-1H-imidazol-1-yl)benzamide]
14 | 100 to 1000 | Cc1cn(-c2ccc(C(=O)N(C)[C@@H]3CCN(C#N)C3)cc2F)cn1 [Example 224, (R)-N-(1-cyanopyrrolidin-3-yl)-3-fluoro-N-methyl-4-(4-methyl-1H-imidazol-1-yl)benzamide]
15 | 1000 to 10000 | N#CN1CC[C@@H](NC(=O)N2CCC(c3ccccn3)C2)C1 (stereo partly drawn) [Example 225, N-((R)-1-cyanopyrrolidin-3-yl)-3-(pyridin-2-yl)pyrrolidine-1-carboxamide]
16 | 1000 to 10000 | Cn1cc(C2CCN(C(=O)N[C@@H]3CCN(C#N)C3)C2)cn1 (stereo partly drawn) [Example 226, N-((R)-1-cyanopyrrolidin-3-yl)-3-(1-methyl-1H-pyrazol-4-yl)pyrrolidine-1-carboxamide]
17 | 100 to 1000 | CN(c1ccc(C(=O)N[C@@H]2CCN(C#N)C2)c(F)c1)S(=O)(=O)c1ccccc1 [Example 228, (R)-N-(1-cyanopyrrolidin-3-yl)-2-fluoro-4-(N-methylphenylsulfonamido)benzamide]
